Results reported in patent US10085963B2, “Process and compositions for achieving mammalian energy balance” (SAMI LABS LIMITED, priority 2015, dated 2018).

Assays:
[1] = tested on: mammalian pre-adipocytes / adipocytes; experiment: Adipogenesis inhibition, Oil Red O staining; format: cell-based
Description: […] C.) of 5% CO2 and 95% air; • f) Fixing, the cells of step e by adding 100 μl of 10% formalin and staining using the Oil Red O technique; • g) Reading the optical density of cells of step f at 492 nm in a microplate reader and expressing the results as inhibitory concentration (IC50) values using the graph pad prism software; • h) Calculating the percentage inhibition of adipogenesis in the cells of steps f and g using the formula, C-T/T×100, wherein C is the absorbance of Oil Red O in differentiating/undifferentiated cells and T is the absorbance of Oil Red O in sample treated differentiating/undifferentiated cells. • i) Adding 200 μl of freshly prepared Adipogenesis induction medium to the wells of step a. • j) Adding 200 μl of freshly prepared Adipogenesis progression medium comprising graded concentrations of forskolin (50 μg/ml and 100 μg/ml respectively) to the wells of step i after 72 hours of incubation with the Adipogenesis induction medium; • k) Incubating the cells treated with forskolin (step j), adipogenesis induction medium (step i) and adipogenesis progression medium (step j) for 48 hours in a humidified atmosphere (37 deg. C.) of 5% (CO2 and 95% air; • l) Fixing the cells of step 1 by adding 100 μl of 10% formal in and staining using the Oil Red O technique; • m) Reading the optical density of cells of step m at 492 nm in as microplate reader and expressing the results as inhibitory concentration (IC50) values using the graph pad prism software; • n) Calculating the percentage inhibition of adipogenesis in the cells of steps m and n using the formula, C-T/T×100, wherein C is the absorbance of Oil Red O in differentiating/undifferentiated cells and T is the absorbance of Oil Red O in sample treated differentiating/undifferentiated cells; and • o) Comparing percentage inhibition of adipogenesis in the cells of steps h and o.

[2] = administration in humans; cited from earlier work

C=C[C@@]1(C)CC(=O)[C@]2(O)[C@@]3(C)[C@@H](O)CCC(C)(C)[C@@H]3[C@H](O)[C@H](OC(C)=O)[C@@]2(C)O1 [forskolin]
inhibition at 6.25 µg/mL ([1]; Adipocyte, forskolin 6.25 μg/ml, read-out: % inhibition of adipogenesis when forskolin is added after differentiation of pre-adipocytes to the adipocyte stage): 1.2% | inhibition at 12.5 µg/mL ([1]; Adipocyte, forskolin 12.50 μg/ml, read-out: % inhibition of adipogenesis when forskolin is added after differentiation of pre-adipocytes to the adipocyte stage): 6.8% | inhibition at 25 µg/mL ([1]; Adipocyte, forskolin 25 μg/ml, read-out: % inhibition of adipogenesis when forskolin is added after differentiation of pre-adipocytes to the adipocyte stage): 10.6% | inhibition at 50 µg/mL ([1]; Adipocyte, forskolin 50 μg/ml, read-out: % inhibition of adipogenesis when forskolin is added after differentiation of pre-adipocytes to the adipocyte stage): 12.9% | inhibition at 100 µg/mL ([1]; Adipocyte, forskolin 100 μg/ml, read-out: % inhibition of adipogenesis when forskolin is added after differentiation of pre-adipocytes to the adipocyte stage): 18.5% | % inhibition of adipogenesis when forskolin is added at the pre-adipocyte stage (before differentiation into the adipocyte stage) ([1]; forskolin 6.25 μg/ml): 10.2% | % inhibition of adipogenesis when forskolin is added at the pre-adipocyte stage (before differentiation into the adipocyte stage) ([1]; forskolin 12.50 μg/ml): 12.8% | % inhibition of adipogenesis when forskolin is added at the pre-adipocyte stage (before differentiation into the adipocyte stage) ([1]; forskolin 25 μg/ml): 19.7% | % inhibition of adipogenesis when forskolin is added at the pre-adipocyte stage (before differentiation into the adipocyte stage) ([1]; forskolin 50 μg/ml): 35.5% | % inhibition of adipogenesis when forskolin is added at the pre-adipocyte stage (before differentiation into the adipocyte stage) ([1]; forskolin 100 μg/ml): 41.8% | clinically significant side effects [2]: does not cause clinically significant side effects
